These are literature values, as cited in patent EP3335699A1, “SELEXIPAG FORMULATION IN LIQUISOLID SYSTEM” (H e x a l Aktiengesellschaft, priority 2016, dated 2018).

For this data set the following is noted: low solubility and low permeability; b10 refers to crystalline forms.

Take `CC(C)N(CCCCOCC(=O)NS(C)(=O)=O)c1cnc(-c2ccccc2)c(-c2ccccc2)n1` [selexipag]: the “BCS (Biopharmaceutics Classification System) class” value is recorded as “class IV”.
